According to ChEMBL document CHEMBL4765335, “Privileged scaffold-based design to identify a novel drug-like 5-HT receptor-preferring agonist to target Fragile X syndrome” (Eur J Med Chem, 2020):

Assay: in vitro
Conditions: rat, liver microsomes

SMILES | remaining at 0.5 h, 10 µM [%]
COc1ccc(-c2ccccc2N2CCN(CCCCOc3ccccc3C#N)CC2)cc1 | 7
COc1ccc(-c2ccccc2C2CCN(CCCCOc3cnccn3)CC2)cc1 | 6
COc1ccc(-c2ccccc2N2CCN(C[C@@H](O)COc3ccc(-c4cn5ccccc5n4)cc3)CC2)cc1 | 48
